# Measured values from patent US5852033A, “Methods of treatment using lamellarin-class alkaloids” (Pharma Mar, s.a., priority 1995, dated 1998).
# Where two headings read alike, the source gives them in different places.
# What was measured:
# P-388 = experiment: LAMELLARINS TOXICITY TO SENSITIVE TUMOR CELL LINE P-388 (MTT); format: cell-based; conditions: Mus musculus, P388, 72 h; P-388, sensitive, MTT, three days; read-out: ACTIVITY: IC50
# Description: (§1) Sensitive and MDR cells were maintained, in logarithmic phase of growth, in Eagle's Minimum Essential Medium, with Earle's Balanced Salts, with non-essential amino acids, with 2.0 mM L-glutamine, without sodium bicarbonate (EMEM/neaa), supplemented with 5% Fetal Calf Serum (FCS), 10^-2 M sodium bicarbonate and 0.1 g/l penicillin G+0.1 g/l streptomycin sulfate.
# (§2) In Vitro cell cytotoxicity was determined using the 3-[4,5-dimethylthiazol-2-yl]-2,5-dipheniltetrazolium bromide (MTT), from Sigma Ref:M-2128, for quantitative measurement of cell growth and viability. See, T. Mosmann, "Rapid Colorimetric Assay for Cellular Growth and Survival: Application to Proliferation and Cytotoxicity Assays," Journal of Immunological Methods, 65: 55-63 (1983).
# (§3) The tumor cell lines employed have been: P-388 (ATCC CCL 46), suspension culture of a lymphoid neoplasm from a DBA/2 mouse and its corresponding MDR cell line P-388/SCHABEL; CHOB1 (ATCC CCL 16), monolayer culture of chinese hamster ovary and its corresponding MDR cell line CHOC5. See, Rauscher Ill, et al., "Characterization of Auromycin-Resistant Hamster Cell Mutants that Display a Multidrug Resistance Phenotype," Molecular Pharmacology, 38: 198-206 (1990).
# (§4) This form of assay employs 96-well cell culture plates […]. Cells were seeded into wells at 1×10^3 cells per well in 100 μl aliquots of EMEM 5% FCS containing different concentrations of the corresponding lamellarins and other compounds (standards) to be tested. Two separate sets of cultures without drugs were seeded, one as control of growth to ensure that cells remained in exponential phase of growth, and another without cells as control of medium. All determinations were carried out in duplicate.
# (§5) After three days of incubation at 37° C., 10% CO2 in a 98% humid atmosphere, 150 μg of MTT is added to each well in 50 μl aliquots of assay medium. Plates were incubated for an additional 4 hours and 100 μl aliquots of isopropanol were added to each well. The broad absorption spectrum for the isopropanol solution of this crystal is optimal at 570 nm. Optical density values were obtained with the help of a Dynatech microplate reader and the results of the assay were used to generate graphics from which IC50 was calculated; i.e., wherein the IC50 is the test concentration which produces 50% cell growth inhibition.
# P-388/SCHABEL (MDR) = experiment: LAMELLARINS TOXICITY TO RESISTANT (MDR) TUMOR CELL LINE P-388/SCHABEL (MTT); format: cell-based; conditions: Mus musculus, P388, 72 h; P-388/SCHABEL (MDR), MTT, three days; read-out: ACTIVITY: IC50
# Description: as §1, §2, §3, §4, §5
# CHOB1 = experiment: LAMELLARINS TOXICITY TO SENSITIVE TUMOR CELL LINE CHOB1 (MTT); format: cell-based, chinese hamster; conditions: Cricetulus griseus, 72 h; CHOB1, sensitive, MTT, three days; read-out: ACTIVITY: IC50
# Description: as §1, §2, §3, §4, §5
# CHOC5 (MDR) = experiment: LAMELLARINS TOXICITY TO RESISTANT (MDR) TUMOR CELL LINE CHOC5 (MTT); format: cell-based, chinese hamster; conditions: Cricetulus griseus, 72 h; CHOC5 (MDR), MTT, three days; read-out: ACTIVITY: IC50
# Description: as §1, §2, §3, §4, §5
# P-388/SCHABEL = experiment: Adriamycin toxicity to resistant cells (MDR) in presence or absence of reversing agents, P-388/SCHABEL; format: cell-based; conditions: Mus musculus, P388; control, Adriamycin only, R.A. 0 μg/ml
# Description: (§6) Gain of Sensitivity (G.S.) = IC50 Control/IC50 R.A.
# as §1, §4
# (§7) Plates were incubated for an additional 4 hours and 100 μl aliquots of isopropanol were added to each well. The broad absorption spectrum for the isopropanol solution of this crystal is optimal at 570 nm.
# CHOC5 = experiment: Adriamycin toxicity to resistant cells (MDR) in presence or absence of reversing agents, CHOC5; format: cell-based, chinese hamster; conditions: Cricetulus griseus; control, Adriamycin only, R.A. 0 μg/ml
# Description: as §6, §1, §4, §7
# HT-29 = experiment: Lamellarin in vitro activity vs. tumor cell lines, HT-29; format: cell-based; conditions: Homo sapiens; HT-29, Table IV
# P388 = experiment: Lamellarin in vitro activity vs. tumor cell lines, P388; conditions: Mus musculus
# A549 = experiment: Lamellarin in vitro activity vs. tumor cell lines, A549; conditions: for IC50: Homo sapiens
# MEL-28 = experiment: Lamellarin in vitro activity vs. tumor cell lines, MEL-28; format: cell-based; conditions: Homo sapiens, SK-MEL-28; MEL-28, Table IV
IC50 (HT-29),IC50 (P388; P388),IC50 (A549; A549),IC50 (MEL-28),SMILES,IC50 (P-388),IC50 (P-388/SCHABEL (MDR)),IC50 (CHOB1),IC50 (CHOC5 (MDR)),IC50 (P-388/SCHABEL),IC50 (CHOC5),"IC50 (P388; P388, read-out: cytotoxicity IC50)","IC50 (A549; A549, read-out: cytotoxicity IC50)","in vitro antitumor activities (A549; compared with lamellarins I, K and L, particularly A549 cells)"
–,–,–,–,"COc1cccc2c1C(=O)c1c(O)c3c(c(O)c1C2=O)C[C@@](O)(C(=O)CO)C[C@@H]3O[C@H]1C[C@H](N)[C@H](O)[C@H](C)O1 [Adriamycin, reference compound]",0.15 µg/mL,1.2 µg/mL,0.15 µg/mL,3 µg/mL,1.2 µg/mL,3 µg/mL,–,–,–
–,–,–,–,COc1cc(-c2c3n(c4c(=O)oc5cc(O)c(OC)cc5c24)C(O)Cc2c-3cc(OC)c(OC)c2OC)ccc1O (centres unmarked) [Lamellarin A],0.5 µg/mL,0.5 µg/mL,0.2 µg/mL,0.4 µg/mL,–,–,–,–,–
–,–,–,–,COc1cc(-c2c3c4cc(OC)c(O)cc4oc(=O)c3n3ccc4c(OC)c(OC)c(OC)cc4c23)ccc1O [Lamellarin B],5.5 µg/mL,5.5 µg/mL,3 µg/mL,10 µg/mL,–,–,–,–,–
–,–,–,–,COc1cc(-c2c3c4cc(OC)c(OC(C)=O)cc4oc(=O)c3n3ccc4cc(OC(C)=O)c(OC)cc4c23)ccc1OC(C)=O [Lamellarin D-triacetate],0.07 µg/mL,0.09 µg/mL,0.03 µg/mL,0.04 µg/mL,–,–,–,–,–
–,–,–,–,COc1ccc(-c2c3n(c4c(=O)oc5cc(OC)c(OC)cc5c24)CCc2c-3cc(OC)c(OC)c2OC)cc1OC [Lamellarin I-Methylate],2.5 µg/mL,3 µg/mL,0.5 µg/mL,2.5 µg/mL,–,–,–,–,–
–,–,–,–,COc1ccc(-c2c3n(c4c(=O)oc5cc(OC(C)=O)c(OC)cc5c24)CCc2c-3cc(OC)c(OC)c2OC)cc1OC [Lamellarin I-acetate],5.5 µg/mL,5.5 µg/mL,2.5 µg/mL,5 µg/mL,–,–,–,–,–
2 µg/mL,1 µg/mL,1 µg/mL,–,COc1cc2c(cc1O)oc(=O)c1c2c(-c2ccc(OC)c(OC)c2)c2n1CCc1c-2cc(OC)c(OC)c1OC [Lamellarin I],2.5 µg/mL,2.5 µg/mL,0.2 µg/mL,1 µg/mL,–,–,~0.25 µg/mL,~0.25 µg/mL,–
2.5 µg/mL,0.1 µg/mL,0.025 µg/mL,2.5 µg/mL,COc1cc2c(cc1O)CCn1c-2c(-c2ccc(OC)c(OC)c2)c2c3cc(OC)c(O)cc3oc(=O)c21 [Lamellarin J],1.5 µg/mL,2 µg/mL,0.3 µg/mL,0.6 µg/mL,–,–,–,–,"significantly better, particularly against A549 cells, than the lamellarins I, K and L"
